Experimental data taken from patent publication US20110232180A1, “Method of applying calcium magnesium acetate to affect growth of unwanted broadleaf weeds in lawn grasses” (priority 2010, published 2011).

Tests used:
[1] = system: violet weeds; assay: calcium magnesium acetate grains or triclopyr liquid applied to violet weeds in lawn grasses; assay type: in vivo
Source text: (§1) These are not mandatory steps, it simply helps reduce fall off of the grains on the leaves. Alternatively, without the binder and size reduction, the grains could rest by simple placement on the leaves of the weed.

[2] = system: environment, ducks and fish; settings: cited from earlier work
[3] = system: broadleaf weeds; settings: granular substance applied to the leaves of the weeds
Source text: A novel unknown use of calcium magnesium acetate is as an effective eliminator of certain broadleaf weeds which invade lawn grasses. When applying the granular substance to the leaves of the weeds, it can produce desired results, very quickly, much faster then many previously known toxic compositions. This method can work in as little as two days.
as §1

[4] = system: common lawn grasses
[5] = system: testosterone in men; settings: by-product of triclopyr; cited from earlier work

Compound | treatments needed to affect violet weeds ([1]; liquid form applied once a month to lawns with violet weeds) | toxicity to the environment [2] | time in which the grains eliminate / control violet weeds ([1]; grains applied to leaves of violet weeds in lawn) | time in which the method works on broadleaf weeds [3] | effect on lawn grasses around or near the violet weeds ([4]; applied by the method (grains isolated on the target weed, limited amount)) | effect on lawn grasses ([4]; extreme over applications of the granular product) | effect on testosterone in men [5]
O=C(O)COc1nc(Cl)c(Cl)cc1Cl [triclopyr, reference compound] | several monthly treatments just to diminish part of the plant | slightly toxic to the environment, ducks and fish | – | – | – | – | –
calcium magnesium acetate | – | non-toxic to the environment | two | two | little or no adverse affect | did affect common lawn grasses | –
tricloropyridine | – | – | – | – | – | – | lower testosterone in men
